Counter-ions that a name gives are not always drawn.
What was measured:
[1] = biological target: T1, Tubulin purified from pig brains (Sus scrofa, UniProt P02550+P02554); experiment: Assessment of the inhibition of tubulin polymerization (turbidimetry at 350 nm); type: biochemical; settings: concentration which inhibits the rate of polymerization by 50%; tubulin 1 mg/ml, 37° C.; read-out: Inhibition of tubulin polymerization IC 50
T1 construct: Tubulin is purified from pig brains according to published methods; from tissue; host or cells: pig brain
T1 sequence (P02550 whole entry): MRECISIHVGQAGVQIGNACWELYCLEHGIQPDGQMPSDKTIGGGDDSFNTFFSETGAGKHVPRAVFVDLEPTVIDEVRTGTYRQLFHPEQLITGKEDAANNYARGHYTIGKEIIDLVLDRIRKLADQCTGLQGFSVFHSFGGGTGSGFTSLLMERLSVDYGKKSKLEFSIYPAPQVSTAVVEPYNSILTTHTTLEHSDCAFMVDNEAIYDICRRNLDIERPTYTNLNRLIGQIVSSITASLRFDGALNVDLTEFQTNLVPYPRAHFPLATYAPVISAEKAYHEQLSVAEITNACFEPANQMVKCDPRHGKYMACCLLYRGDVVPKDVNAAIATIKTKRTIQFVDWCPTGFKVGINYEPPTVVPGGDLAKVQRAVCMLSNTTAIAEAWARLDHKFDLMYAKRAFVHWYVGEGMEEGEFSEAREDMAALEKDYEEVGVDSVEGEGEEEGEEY
T1 sequence (P02554 whole entry): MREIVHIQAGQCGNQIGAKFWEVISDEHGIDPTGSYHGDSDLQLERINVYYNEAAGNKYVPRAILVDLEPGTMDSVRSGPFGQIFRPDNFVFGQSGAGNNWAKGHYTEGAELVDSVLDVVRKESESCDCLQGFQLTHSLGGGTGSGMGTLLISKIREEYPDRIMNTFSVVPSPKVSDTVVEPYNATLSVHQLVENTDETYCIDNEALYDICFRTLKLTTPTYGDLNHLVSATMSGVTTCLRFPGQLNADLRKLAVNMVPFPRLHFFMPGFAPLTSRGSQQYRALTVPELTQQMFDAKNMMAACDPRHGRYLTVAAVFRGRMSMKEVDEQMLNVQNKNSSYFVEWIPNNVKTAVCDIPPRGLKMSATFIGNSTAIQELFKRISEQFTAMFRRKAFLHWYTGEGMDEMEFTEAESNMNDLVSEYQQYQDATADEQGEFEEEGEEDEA
Experimental: Assessment of the Inhibition of Tubulin Polymerization
Tubulin is purified from pig brains according to published methods (Shelanski et al., 1973, Proc. Natl. Acad. Sci. USA, 70, 765-768. Weingarten et al., 1975, Proc. Natl. Acad. Sci. USA, 72, 1858-1862). Briefly, the brains are ground and centrifuged in an extraction buffer. The tubulin, present in the extract supernatant is subjected to two successive cycles of polymerization at 37° C. and depolymerization at 4° C., before being separated from the MAPs (Microtubule Associated Proteins) by chromatography on a phosphocellulose P11 column (Whatman). The tubulin thus isolated is more than 95% pure. It is stored in a buffer known as RB/2 30% glycerol, the composition of which is 50 mM MES-NaOH [2-(N-morpholino)ethanesulfonic acid], pH 6.8; 0.25 mM MgCl2; 0.5 mM EGTA; 30% (v/v) glycerol, 0.2 mM GTP (guanosine 5′-triphosphate).
The polymerization of the tubulin into microtubules is monitored by turbidimetry as follows: the tubulin is adjusted to a concentration of 10 μm (1 mg/ml) in the RB/2 30% glycerol buffer, to which are added 1 mM GTP and 6 mM MgCl2. The polymerization is initiated by increasing the temperature from 6° C. to 37° C. in a cuvette with a 1 cm optical pathlength, placed in a UVIKON 931 spectrophotometer (Kontron) equipped with a thermostatically-regulated cuvette holder. The increase in turbidity of the solution is monitored at 350 nm.
The products are dissolved at 10 mM in DMSO and added at variable concentrations (0.5 to 10 μm) to the tubulin solution before polymerization. The IC50 is defined as the concentration of the product which inhibits the rate of polymerization by 50%.

HCT116 cells = experiment: Inhibition of proliferation of the HCT116 human colon tumor line ([14C]-thymidine incorporation); type: cell-based; settings: HCT-116, 48 hours incubation at 37° C., read-out: Inhibition of HCT116 proliferation IC 50
Experimental: Test for Determining the Inhibition of Proliferation of the HCT116 Human Colon Tumor Line
The proliferation of HCT116 cells is evaluated by mesuring the incorporation of [^14C]-thymidine in the following way. The HCT166 cells (from the ATCC) are cultured in a DMEM medium (Gibco) which contains 10% of fetal calf serum and antibiotics (1% penicillin, 1% streptomycin). To perform the proliferation test, the cells are seeded into 96-well cytostar microplates (Amersham) at the rate of 5000 cells per well. The [^14C]-thymidine (0.1 μCi/well) and the products to be evaluated are subsequently added. Variable concentrations of products up to 10 μM are used; the DMSO (solvent used to dissolve the products) should not exceed 0.5% in the medium. 48 hours after incubation at 37° C., the radioactivity incorporated into the cells is measured by counting the plate in a Tri-Lux counter (Wallac). The IC50 is defined as the concentration of product which reduces the radioactivity by 50% compared with an untreated control. A product with an IC50 of less than 10 μm is regarded as cytotoxic.

Row | SMILES | IC50 [1] | IC50 (HCT116 cells)
1 | COc1cc(OC)cc(N2CCN(C(=O)c3[nH]c(C(F)(F)F)nc3-c3ccccc3)CC2)c1 [Example 62, [4-(3,5-Dimethoxyphenyl)piperazin-1-yl](2-trifluoromethyl-4-phenyl-1H-imidazol-5-yl)methanone] | 570 nM | 8 nM
2 | N#Cc1cccc(N2CCN(C(=O)c3[nH]cnc3-c3ccccc3)CC2)c1 [Example 14, [4-(3-Cyanophenyl)piperazin-1-yl](4-phenyl-1H-imidazol-5-yl)methanone] | 1200 nM | 7.4 nM
3 | COc1cc(OC)c(O)c(N2CCN(C(=O)c3[nH]c([S+](C)[O-])nc3-c3ccccc3)CC2)c1 (stereo not shown) [Example 38, [4-(2-Hydroxy-3,5-dimethoxyphenyl)piperazin-1-yl](2-methanesulfinyl-5-phenyl-1H-imidazol-4-yl)methanone] | 19900 nM | 2310 nM
4 | O=C(c1c[nH]cc1-c1ccccc1)N1CCN(c2cccc(Cl)c2)CC1 [Example 15, [4-(3-Chlorophenyl)piperazin-1-yl](4-phenyl-1H-pyrrol-3-yl)methanone] | 2900 nM | 731 nM
5 | O=C(c1cncn1-c1ccccc1)N1CCN(c2cccc(Cl)c2)CC1 [Example 1, [4-(3-Chlorophenyl)piperazin-1-yl](1-phenyl-1H-imidazol-5-yl)methanone] | 2000 nM | 29.6 nM
6 | Cc1nc(-c2ccccc2)c(C(=O)N2CCN(c3cccc(CO)c3)CC2)[nH]1 [Example 76, [4-(3-Hydroxymethylphenyl)piperazin-1-yl](2-methyl-4-phenyl-1H-imidazol-5-yl)methanone] | 970 nM | 101 nM
7 | NC(=O)c1cccc(N2CCN(C(=O)c3cc[nH]c3-c3ccccc3)CC2)c1 [Example 25, [4-(3-Carboxamidophenyl)piperazin-1-yl](2-phenyl-1-H-pyrrol-3-yl)methanone] | 9600 nM | 297 nM
8 | COc1cc(OC)cc(N2CCN(C(=O)c3cncn3-c3ccccc3)CC2)c1 [Example 11, [4-(3,5-Dimethoxyphenyl)piperazin-1-yl](1-phenyl-1H-imidazol-5-yl)-methanone hydrochloride] | 2400 nM | 45.7 nM
9 | Cn1ccc(C(=O)N2CCN(c3cccc(C(N)=O)c3)CC2)c1-c1ccccc1 [Example 50, 3-[4-(1-Methyl-2-phenyl-1H-pyrrol-3-ylcarbonyl)piperazin-1-yl]benzamide] | 3410 nM | 536 nM
10 | COC(=O)CCn1cc(C(=O)N2CCN(c3cccc(Cl)c3)CC2)c(-c2ccccc2)c1 [Example 34, Methyl 3-{3-[4-(3-chlorophenyl)piperazin-1-ylcarbonyl]-4-phenylpyrrol-1-yl}-propionate] | 2160 nM | 749 nM
11 | O=C(c1[nH]ccc1-c1ccccc1)N1CCN(c2cccc(Cl)c2)CC1 [Example 6, [4-(3-Chlorophenyl)piperazin-1-yl](3-phenyl-1H-pyrrol-2-yl)methanone] | 690 nM | 34 nM
12 | O=C(c1ncoc1-c1ccccc1)N1CCN(c2cccc(Cl)c2)CC1 [Example 2, [4-(3-Chlorophenyl)piperazin-1-yl](5-phenyl-1,3-oxazol-4-yl)methanone] | 22000 nM | 8750 nM
13 | COc1cc(OC)cc(N2CCN(C(=O)c3[nH]c(S(C)(=O)=O)nc3-c3ccccc3)CC2)c1 [Example 67, [4-(3,5-Dimethoxyphenyl)piperazin-1-yl](2-methylsulfonyl-4-phenyl-1H-imidazol-5-yl)methanone] | 1650 nM | 2700 nM
14 | Cn1cc(C(=O)N2CCN(c3cccc(CO)c3)CC2)c(-c2ccccc2)c1 [Example 69] | 710 nM | 45 nM
15 | Cc1nc(-c2ccccc2)c(C(=O)N2CCN(c3cccc(C(N)=O)c3)CC2)[nH]1 [Example 59, 3-[4-(2-Methyl-5-phenyl-1H-imidazol-4-ylcarbonyl)piperazin-1-yl]benzamide] | 4660 nM | 364 nM
16 | COc1cc(OC)cc(N2CCN(C(=O)c3cn(C)cc3-c3ccccc3)CC2)c1 [Example 18, [4-(3,5-Dimethoxyphenyl)piperazin-1-yl](1-methyl-4-phenyl-1H-pyrrol-3-yl)methanone hydrochloride] | 970 nM | 3.8 nM
17 | N#Cc1cccc(N2CCN(C(=O)c3cn(CO)cc3-c3ccccc3)CC2)c1 [Example 72, 3-[4-(1-Hydroxymethyl-4-phenyl-1H-pyrrol-3-ylcarbonyl)piperazin-1-yl]benzonitrile] | 580 nM | 29.5 nM
18 | COc1cc(OC)cc(N2CCN(C(=O)c3sc(N)nc3-c3ccccc3)CC2)c1 [Example 42, (2-Amino-4-phenylthiazol-5-yl)[4-(3,5-dimethoxyphenyl)piperazin-1-yl]-methanone] | 1290 nM | 1.6 nM
19 | N#Cc1cccc(N2CCN(C(=O)c3cncn3-c3ccccc3)CC2)c1 [Example 13, [4-(3-Cyanophenyl)piperazin-1-yl](1-phenyl-1H-imidazol-5-yl)methanone] | 2900 nM | 90.9 nM
20 | N#Cc1cccc(N2CCN(C(=O)c3c[nH]cc3-c3ccccc3)CC2)c1 [Example 61, 3-[4-(4-Phenyl-1H-pyrrol-3-ylcarbonyl)piperazin-1-yl]benzonitrile] | 2320 nM | 40 nM
21 | COc1cc(OC)cc(N2CCN(C(=O)c3[nH]c([S+](C)[O-])nc3-c3ccccc3)CC2)c1 (stereo not shown) [Example 33, [4-(3,5-Dimethoxyphenyl)piperazin-1-yl](2-methanesulfinyl-5-phenyl-1H-imidazol-4-yl)methanone] | 1950 nM | 180 nM
22 | NC(=O)c1cccc(N2CCN(C(=O)c3cn(CCO)cc3-c3ccccc3)CC2)c1 [Example 66, 3-[4-(1-Hydroxyethyl-4-phenyl-1H-pyrrol-3-ylcarbonyl)piperazin-1-yl]benzamide] | 2430 nM | 2030 nM
23 | O=C(c1[nH]cnc1-c1ccccc1)N1CCN(c2cccc(Cl)c2)CC1 [Example 3, [4-(3-Chlorophenyl)piperazin-1-yl](4-phenyl-1H-imidazol-5-yl)methanone] | 1000 nM | 6.8 nM
24 | NC(=O)c1cccc(N2CCN(C(=O)c3[nH]ccc3-c3ccccc3)CC2)c1 [Example 39, 3-[4-(3-Phenyl-1H-pyrrol-2-ylcarbonyl)piperazin-1-yl]benzamide] | 12400 nM | 200 nM
25 | COc1cc(OC)cc(N2CCN(C(=O)c3ccn(Cc4cccnc4)c3-c3ccccc3)CC2)c1 [Example 64, [4-(3,5-Dimethoxyphenyl)piperazin-1-yl][1-(3-pyridyl)methyl-2-phenyl-1H-pyrrol-3-yl]methanone] | 13400 nM | 
26 | COC(=O)Cn1ccc(C(=O)N2CCN(c3cc(OC)cc(OC)c3)CC2)c1-c1ccccc1 [Example 49, Methyl 2-{3-[4-(3,5-dimethoxyphenyl)piperazin-1-yl]carbonyl-2-phenyl-1H-pyrrol-1-yl}acetate] | 1570 nM | 
27 | N#Cc1cccc(N2CCN(C(=O)c3cn(CCO)cc3-c3ccccc3)CC2)c1 [Example 87, 3-[4-(1-Hydroxyethyl-4-phenyl-1H-pyrrol-3-ylcarbonyl)piperazin-1-yl]-benzonitrile] | 582 nM | 
28 | O=C(O)CCn1cc(C(=O)N2CCN(c3cccc(Cl)c3)CC2)c(-c2ccccc2)c1 [Example 32, 3-{3-[4-(3-Chlorophenyl)piperazin-1-ylcarbonyl]-4-phenylpyrrol-1-yl}-propionic acid] | 2740 nM | 

Source: US20050014765A1, “Aryl-heteroaromatic products, compositions comprising them and use” (Aventis Pharma S.A., priority 2003, published 2005)
